From publication PMC9767854, “Discovery and mechanism studies of a novel ATG4B inhibitor Ebselen by drug repurposing and its anti-colorectal cancer effects in mice” (Cell & Bioscience, 2022)

Tests used:
[1] = test system: WT and ATG4B KO HCT116; test: Apoptosis detection by cleaved PARP western blot; type: cell-based; settings: low or high concentrations of Ebselen; STS 2 μM; 6 h
[2] = test system: CASP3; set-up: method as in PMID 23632366, PMID 25468037; settings: cited from earlier work
[3] = test system: HeLa cell line; test: Autophagy flux by LC3B-II western blot in HeLa; type: cell-based; settings: Torin 1 2 μM, CQ 40 μM
Procedure: Since ATG4B is a key protein in autophagy, the experiment on the effect of Ebselen on autophagy flux was worth proposing. First of all, we determined the most classic index LC3B for autophagy flux detection in HeLa cell line. […] A, B HeLa cells were treated with Torin 1 (2 μM) or CQ (40 μM) and detected by western blot. C, D SW620 cells were transduced with sgCon and sgATG4B lentiviruses, respectively. Then cells were treated with CQ (40 μM) and detected by western blot. E, F HCT116 were treated with Ebselen (5 and 10 μM) or CQ (40 μM) and subjected to western blot. G, H SW620 were treated with Ebselen (10 μM) or CQ (40 μM) and western blotting was carried out to detect the protein levels. I, J Immunofluorescence analysis of endogenous LC3B in HCT116 treated with Ebselen (10 μM) or CQ (40 μM). Dots numbers for LC3B were derived from counting at least 20 cells and 5 fields from three independent replicated experiments. Bar = 10 μm. K HCT116 cells were treated with 2 μM Torin 1 in the presence or absence of 10 μM Ebselen for 12 h, then the level ratio of long-lived proteins was measured by flow cytometry

SMILES: CN[C@@H]1C[C@H]2O[C@@](C)([C@@H]1OC)n1c3ccccc3c3c4c(c5c6ccccc6n2c5c31)C(=O)NC4 [Staurosporine (STS), Staurosporine]
- apoptosis (cleaved PARP) [1]: generation of apoptosis

SMILES: O=c1c2ccccc2sn1-c1ccccc1 [Ebsulfur]
- inhibition on CASP3 [2]: clear inhibition

SMILES: CCC(=O)N1CCN(c2ccc(-n3c(=O)ccc4cnc5ccc(-c6cnc7ccccc7c6)cc5c43)cc2C(F)(F)F)CC1 [Torin 1]
- effect on autophagy (LC3B-II accumulation with CQ) [3]: autophagy inducer
